Measurements: US20050288377A1, “Use of calcimimetic as an adynamic bone disease related treatment” (priority 2004, published 2005)
Where “and” joins values, the source holds several entries; their conditions need not be identical. Equal values may be shown once. Where a name gives a salt, the structure may show the parent alone. Read-outs that look alike come from different tables or passages of the source.

Key:
[1] = system: parathyroid cancer patients; assay: PTH levels and ratio in parathyroid cancer patients receiving Cinacalcet HCl (Table 2); assay type: in vivo, human; details: SCR or D1 visit: prior to Cinacalcet HCl treatment (baseline); hydrochloride
Text: See M. R. Rubin, et al., “A Molecular Form of PTH Distinct From PTH (1-84) is Produced in Parathyroid Carcinoma” (J. Bone & Mineral Metab., forthcoming).

ESRD subjects = assay: Study of ESRD subjects treated with Cinacalcet and HECTOROL (Table 3); assay type: in vivo, human; details: unlabelled summary line over patients 1-11
Text: Table 3 provides the results of a study of several ESRD subjects treated with Cinacalcet and HECTOROL™ (Doxercalciferol synthetic Vitamin D). Pre and post treatment levels of total PTH, 1-84 PTH, 7-84 PTH, calcium, phosphate and alkaline phosphatase are provided together with the pre and post treatment ratio of 1-84 PTH/7-84 PTH and the pre and post treatment product of (calcium) x (phosphate).

[2] = system: chronic kidney disease patients on dialysis; details: product insert; cited from earlier work
1-84 PTH/7-84 PTH ratio = details: cited from earlier work

C[C@@H](NCCCc1cccc(C(F)(F)F)c1)c1cccc2ccccc12 [Cinacalcet HCl]
CPTH/TPTH [1]: 1.5 and 1.6
Post CIP (7-84 PTH) (ESRD subjects; post treatment): 342.2
Post Ca (ESRD subjects; post treatment): 8.7
Post Phos (ESRD subjects; post treatment): 5.6
Post alk phos (ESRD subjects; post treatment): 240.5
Post-CAP (1-84 PTH) (ESRD subjects; post treatment): 458.3
Post-Total (total PTH) (ESRD subjects; post treatment): 800.4
Prot Ca xP (ESRD subjects; post treatment): 49.2
Pre Ca (ESRD subjects; pre treatment): 9.5
Pre Ca xP (ESRD subjects; pre treatment): 55.7
Pre Phos (ESRD subjects; pre treatment): 5.9
Pre alk phos (ESRD subjects; pre treatment): 220.2
Pre-CAP (1-84 PTH) (ESRD subjects; pre treatment): 508.8
Pre-CIP (7-84 PTH) (ESRD subjects; pre treatment): 355.3
Pre-Total (total PTH) (ESRD subjects; pre treatment): 864.0
risk for developing adynamic bone disease [2]: carries a risk for developing adynamic bone disease

C=C1/C(=C\C=C2/CCC[C@]3(C)[C@@H]([C@H](C)/C=C/[C@H](C)C(C)C)CC[C@@H]23)C[C@@H](O)C[C@@H]1O [Hectarale, Doxercalciferol]
Ca (1-84 PTH/7-84 PTH ratio; 2.5 μgm/dose, Nov. 1 2001 (Ca Nov. 8)): 8.1 mg/dL
PO4 (1-84 PTH/7-84 PTH ratio; 2.5 μgm/dose, Nov. 1 2001 (PO4 Nov.5-7)): 5.7 mg/dL
CAP (1-84 PTH/7-84 PTH ratio; 2.5 μgm/dose, Nov. 1 2001): 1462 pgm/mL
CAP/CIP (1-84 PTH/7-84 PTH ratio; 2.5 μgm/dose, Nov. 1 2001): 6.74
CIP (1-84 PTH/7-84 PTH ratio; 2.5 μgm/dose, Nov. 1 2001): 217 pgm/mL
Ca × PO4 (1-84 PTH/7-84 PTH ratio; 2.5 μgm/dose, Nov. 1 2001): 46
Intact PTH (1-84 PTH/7-84 PTH ratio; 2.5 μgm/dose, Nov. 1 2001): 1679 pgm/mL
Ca (1-84 PTH/7-84 PTH ratio; 4 μgm/dose, Aug. 17 2001 (Ca Sept. 21)): 8.3 mg/dL
PO4 (1-84 PTH/7-84 PTH ratio; 4 μgm/dose, Aug. 17 2001 (PO4 Sept. 21)): 7.0 mg/dL
CAP (1-84 PTH/7-84 PTH ratio; 4 μgm/dose, Aug. 17 2001): 1735 pgm/mL
CAP/CIP (1-84 PTH/7-84 PTH ratio; 4 μgm/dose, Aug. 17 2001): 0.95
CIP (1-84 PTH/7-84 PTH ratio; 4 μgm/dose, Aug. 17 2001): 1824 pgm/mL
Ca × PO4 (1-84 PTH/7-84 PTH ratio; 4 μgm/dose, Aug. 17 2001): 58
Intact PTH (1-84 PTH/7-84 PTH ratio; 4 μgm/dose, Aug. 17 2001): 3559 pgm/mL
